Assay results published in PubChem BioAssay (NCI).
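Dose response: 5 concentrations. Exposure: 48 h. Format: 96-well plates. Endpoint: linear interpolation; highest concentration if not reached. Definition used: TGI = concentration required for complete inhibition of growth.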 Where a SMILES comes first, the peptide text is derived from it. [ ]: non-standard residue; d: D form. The star is where a group is joined. ξ: configuration not given here. ξD = NC(CC(=O)O)C(=O)O; Boc = CC(C)(C)OC(=O)*; Aib = CC(C)(N)C(=O)O; OBn = c1ccc(CO*)cc1

Legend:
Test in all cases: DTP human tumour cell line panel, 48 h
HCT-116 colon = tested on: HCT-116 colon
ACHN renal = tested on: ACHN renal
LOX IMVI melanoma = tested on: LOX IMVI melanoma
OVCAR-4 ovarian = tested on: OVCAR-4 ovarian
SNB-19 CNS = tested on: SNB-19 CNS
EKVX NSCLC = tested on: EKVX NSCLC
HOP-92 NSCLC = tested on: HOP-92 NSCLC
K-562 leukemia = tested on: K-562 leukemia
RPMI-8226 leukemia = tested on: RPMI-8226 leukemia
NCI-H522 lung = tested on: NCI-H522 lung
M14 melanoma = tested on: M14 melanoma
KM12 colon = tested on: KM12 colon
MDA-MB-435 = tested on: MDA-MB-435
U251 CNS = tested on: U251 CNS
SR leukemia = tested on: SR leukemia

| SMILES | TGI (HCT-116 colon) | TGI (ACHN renal) | TGI (LOX IMVI melanoma) | TGI (OVCAR-4 ovarian) | TGI (SNB-19 CNS) | TGI (EKVX NSCLC) | TGI (HOP-92 NSCLC) | TGI (K-562 leukemia) | TGI (RPMI-8226 leukemia) | TGI (NCI-H522 lung) | TGI (M14 melanoma) | TGI (KM12 colon) | TGI (MDA-MB-435) | TGI (U251 CNS) | TGI (SR leukemia) |
| --- | --- | --- | --- | --- | --- | --- | --- | --- | --- | --- | --- | --- | --- | --- | --- |
| NC1CCN(c2nc3ccccc3c3c2CCCC3)CC1 | 14.4 µM | 22.4 µM | 14.2 µM | 4.63 µM | 22.7 µM | 21.4 µM | 17.2 µM | 6.58 µM | 11.1 µM | 19.3 µM | 3.84 µM | 15.2 µM | 7.61 µM | 14.8 µM |  |
| Oc1ccc(Br)cc1C=Nc1c(NC2CCCCC2)oc2ccc(Br)cc12 | 28.7 µM | > 100 µM | 38.7 µM | > 100 µM | > 100 µM | > 100 µM |  | 29.2 µM | > 100 µM |  |  | > 100 µM | > 100 µM | > 100 µM | > 100 µM |
| COc1cc([C@@H]2c3cc4c(cc3[C@@H](NCc3ccccc3F)C3COC(=O)[C@@H]32)OCO4)cc(OC)c1O (some centres undefined) | 21.9 µM | 4.28 µM | 16.7 µM | > 100 µM | 60.5 µM | 45.9 µM | 54.3 µM | 35.4 µM | 13.1 µM | 10.2 µM | 13.6 µM | 18 µM |  | 9.02 µM |  |
| O=C(NCCCCCCCCNC(=O)Nc1cccc2ccccc12)Nc1cccc2ccccc12 | > 100 µM | > 100 µM | 59.1 µM | 4.18 µM | > 100 µM | > 100 µM | 36 µM | 46.7 µM | > 100 µM | 87 µM | > 100 µM | > 100 µM | 81.3 µM | 8.49 µM |  |
| COc1cccc([C@@H]2C/C(=N\NC(=O)C(=O)N[C@@H](C)c3ccccc3)c3ccccc3N2)c1 | > 100 µM | > 100 µM | > 100 µM | > 100 µM | > 100 µM | > 100 µM | > 100 µM | > 100 µM | > 100 µM |  | > 100 µM | > 100 µM | 48.8 µM | > 100 µM |  |
| O=C1NC(=O)C(CCC(=O)c2cccc3ccccc23)C(=O)N1 | > 100 µM | > 100 µM | > 100 µM | > 100 µM | > 100 µM |  | > 100 µM | > 100 µM | > 100 µM |  | > 100 µM | > 100 µM | > 100 µM | > 100 µM | > 100 µM |
| NC(=O)N/N=C(\CC1OC(=O)c2ccccc21)c1ccc([N+](=O)[O-])cc1 (centres undefined) | 74.2 µM | > 100 µM | 33.9 µM | > 100 µM | 51.6 µM | > 100 µM |  |  | > 100 µM |  | > 100 µM | 95.9 µM |  | 39.5 µM | > 100 µM |
| Nc1ccc(Oc2ccc(C34CC5CC(C3)CC(c3ccc(Oc6ccc(N)cc6C(F)(F)F)cc3)(C5)C4)cc2)c(C(F)(F)F)c1 | > 100 µM | > 100 µM | 31.8 µM | > 100 µM | 48.9 µM | 30.9 µM |  | > 100 µM |  | 30.3 µM | 33.4 µM | 67.6 µM | 84.2 µM | 27.6 µM |  |
| CC(C)(C)OC(=O)NC(CC(=O)OCc1ccccc1)C(=O)NC(C)(C)C(N)=O (centres undefined) (Boc-[ξD](OBn)-[Aib]-NH2) | > 100 µM | > 100 µM | > 100 µM | > 100 µM | > 100 µM | > 100 µM | > 100 µM | > 100 µM | > 100 µM | > 100 µM | > 100 µM | > 100 µM | > 100 µM | > 100 µM |  |
| CC(=O)NC(CCCCNCc1ccccc1)C(=O)NCc1ccccc1 (centres undefined) | > 100 µM | > 100 µM | > 100 µM | > 100 µM | > 100 µM | > 100 µM | > 100 µM | > 100 µM | > 100 µM | > 100 µM | > 100 µM | > 100 µM |  | > 100 µM |  |
| Nc1nc(Cl)c(N)c(NCC2(CO)CCC(OCc3ccccc3)C2)n1 (centres undefined) | > 100 µM | > 100 µM | > 100 µM | > 100 µM | > 100 µM | > 100 µM | > 100 µM | > 100 µM |  | > 100 µM |  | > 100 µM | > 100 µM | > 100 µM |  |
| Cc1[nH]c2ncn3[nH]c(=S)nc3c2c1Cc1ccccc1 | > 100 µM | > 100 µM |  | > 100 µM | > 100 µM | > 100 µM | > 100 µM |  |  | > 100 µM | > 100 µM | > 100 µM | > 100 µM | > 100 µM |  |
| CC(C(=O)NCNC(=O)c1ccccc1)C(=O)Nc1ccccc1 (centres undefined) | > 100 µM | > 100 µM |  |  | > 100 µM | > 100 µM | > 100 µM |  | > 100 µM | > 100 µM | > 100 µM | > 100 µM | > 100 µM | > 100 µM |  |
| COC(=O)C(Cc1nc2ccc(Cl)cc2[nH]c1=O)C(=O)C(=O)Nc1cc(C)ccc1C (centres undefined) | > 100 µM | > 100 µM | > 100 µM | > 100 µM | > 100 µM | > 100 µM |  | > 100 µM | > 100 µM | > 100 µM | > 100 µM | > 100 µM |  | > 100 µM | > 100 µM |
| CC(=O)NC1=NC(=O)/C(=C/c2ccccc2Cl)N1C | > 100 µM | > 100 µM | > 100 µM | > 100 µM | > 100 µM | > 100 µM | > 100 µM |  |  | > 100 µM | > 100 µM | > 100 µM | > 100 µM | > 100 µM |  |
| CC1(C)CN(CC(=O)O)CC(Cc2ccc(OCC(=O)O)cc2)N(CC(=O)O)CC(C)(C)SS1 (centres undefined) | > 100 µM | > 100 µM | > 100 µM | > 100 µM | > 100 µM | > 100 µM | > 100 µM | > 100 µM | > 100 µM | > 100 µM | > 100 µM | > 100 µM | > 100 µM | > 100 µM |  |
| N#CC(NNC(=O)Cc1ccccc1)c1ccc([N+](=O)[O-])cc1 (centres undefined) | > 100 µM | > 100 µM | > 100 µM | > 100 µM |  |  | > 100 µM | > 100 µM | > 100 µM | > 100 µM | > 100 µM | > 100 µM |  | > 100 µM | > 100 µM |
